pIC50: −log10 of the molar value. Activity calls are given as the source filed them. No cut-off for these calls is given here.
Key:
H9c2 [1] = test: Induction of NO release ratio in rat H9c2 cells under hypoxia condition by Griess reagent based microplate reader analysis relative to control; assay type: functional; design: concentration or dose not given beside the values
[2] = molecular target: T1, Prostaglandin G/H synthase 2 (Homo sapiens, UniProt P35354); test: Inhibition of COX-2 (unknown origin)
T1 sequence (P35354 whole entry): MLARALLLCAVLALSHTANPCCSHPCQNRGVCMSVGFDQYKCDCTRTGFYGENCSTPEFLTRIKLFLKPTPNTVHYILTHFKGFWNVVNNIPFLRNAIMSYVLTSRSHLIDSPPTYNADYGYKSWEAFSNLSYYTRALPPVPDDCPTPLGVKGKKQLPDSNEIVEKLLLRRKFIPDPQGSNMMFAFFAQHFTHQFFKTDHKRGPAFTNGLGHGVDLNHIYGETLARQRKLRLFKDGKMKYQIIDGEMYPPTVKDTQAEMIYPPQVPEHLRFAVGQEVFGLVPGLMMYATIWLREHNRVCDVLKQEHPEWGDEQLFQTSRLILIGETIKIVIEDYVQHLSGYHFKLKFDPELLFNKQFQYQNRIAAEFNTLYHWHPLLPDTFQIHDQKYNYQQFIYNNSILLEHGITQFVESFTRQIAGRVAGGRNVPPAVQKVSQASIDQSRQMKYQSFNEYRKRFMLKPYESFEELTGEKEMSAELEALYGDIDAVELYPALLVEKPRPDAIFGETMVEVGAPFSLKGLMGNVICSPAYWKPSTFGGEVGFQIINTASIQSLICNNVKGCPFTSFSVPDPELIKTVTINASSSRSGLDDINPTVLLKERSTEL

H9c2 [3] = test: Upregulation of HO-1 expression in rat H9c2 cells at 1 uM under hypoxia by Western blotting analysis; assay type: functional, cell-based
H9c2 [4] = test: Induction of NO release in rat H9c2 cells under hypoxia condition at 1 to 50 uM incubated for 4 hrs by Griess reagent based microplate reader analysis; assay type: functional, cell-based; conditions: dose 1-50 µM
H9c2 [5] = test: Downregulation of ACE protein expression in rat H9c2 cells at 1 uM under hypoxia by Western blotting analysis; assay type: functional, cell-based
Rattus norvegicus [6] = test: Cardioprotective activity against LPS and talc powder induced pericarditis male Wistar rat assessed as improvement in pericardium thickening at 10 mg/kg administered for 3 days; assay type: functional, organism-based; conditions: time 3.0 day
Rattus norvegicus [7] = test: Cardioprotective activity against LPS and talc powder induced pericarditis male Wistar rat assessed as improvement in cardiac swelling at 10 mg/kg administered for 3 days; assay type: functional, organism-based; conditions: time 3.0 day
[8] = Toxicity in male Wistar rat assessed as growth curve at 10 mg/kg administered once a day for 3 days and measured after 6 days; assay type: organism-based; conditions: in vivo, 72 h, time 3 day
H9c2 [9] = test: Upregulation of VEFG protein expression level in rat H9c2 cells at 1 uM under hypoxia by Western blotting analysis; assay type: functional, cell-based
[10] = Induction of H2S release by absorbance based analysis; assay type: functional

COc1ccc2c(c1)c(CC(=O)Oc1ccc(N(C)N=O)cc1)c(C)n2C(=O)c1ccc(Cl)cc1 gave an Activity (H9c2 [1]) of 32.85%.

Work on CC(C)Cc1ccc(C(C)C(=O)Oc2ccc(N(C)N=O)cc2)cc1 (configuration not stated) yielded a pIC50 [2] of 3.35 and an Activity (H9c2 [1]) of 12.11%.

Molecule CC(C(=O)Oc1ccc(N(C)N=O)cc1)c1cccc(Oc2ccccc2)c1 (configuration not stated) has an Activity (H9c2 [1]) of 1.12%.

In the case of CC(C(=O)Oc1ccc(N(C)N=O)cc1)c1cccc(C(=O)c2ccccc2)c1 (configuration not stated), the Activity (H9c2 [1]) was 2.23%.

Molecule Cc1cccc(Nc2ccccc2C(=O)Oc2ccc(N(C)N=O)cc2)c1C has an Activity (H9c2 [1]) of 34.55%.

Work on CCc1cccc2c3c([nH]c12)C(CC)(CC(=O)Oc1ccc(N(C)N=O)cc1)OCC3 (configuration not stated) yielded an Activity (H9c2 [1]) of 1.01%.

With CC1=C(CC(=O)Oc2ccc(N(C)N=O)cc2)c2cc(F)ccc2/C1=C\c1ccc([S+](C)[O-])cc1 (configuration not stated) the Activity (H9c2 [1]) was 32.56%.

COc1ccc2cc(C(C)C(=O)Oc3ccc(N(C)N=O)cc3)ccc2c1 (single isomer, unassigned) showed an Activity (H9c2 [1]) of 44.95%.

With CC1=C(CC(=O)O)c2cc(F)ccc2/C1=C\c1ccc([S+](C)[O-])cc1 (configuration not stated) [SULINDAC] the Activity (H9c2 [3]) was “Active”, the Activity (H9c2 [4]) was “inactive” and the Activity (H9c2 [5]) was “Active”. For the same molecule, the Activity (Rattus norvegicus [6]) was “Active”, the Activity (Rattus norvegicus [7]) was “Active” and the Activity [8] was “Non-toxic”. The Activity (H9c2 [9]) was “inactive” and the Activity [10] was 29.5 µg/L.

From ChEMBL document CHEMBL6096641, “Discovery of the synergy between sulindac and NO expands the application of NSAIDs in cardiac complications” (Bioorg Med Chem, 2024)
